Results: patent US20130337564A1, “Treatment of Pluripotent Cells” (Janssen Biotech, Inc., priority 2012, published 2013)
Where “and” joins values, the source holds several entries; their conditions need not be identical. Identical values can stand only once.

Legend:
[1] = test system: human embryonic stem cells (H9 or H1 lines); assay: Plate reader (MTS) proliferation assay; type: cell-based; settings: for activity at 10 µM: Homo sapiens, Embryonic stem cell, 96 h; for activity at 10 µM / % Control Value (proliferation): 10 μM test compound with 100 ng/ml activin A on days 1-2, MTS OD490 on day 4, vs Activin A/Wnt3a positive control, strong and moderate hits; for Average (of Raw Data): plate reader raw signal, mean of replicate wells, proliferation of human embryonic stem cells; for Average: average of replicate raw data; for Raw Data: replicate wells, plate reader proliferation screen of GSK-3B inhibitors
Method: Maintenance of human embryonic stem cells (H9 or H1 lines) was conducted as described in Example 1. Colonies of cells were maintained in an undifferentiated, pluripotent state with passage on average every four days. Passage was performed by exposing cell cultures to a solution of collagenase (1 mg/ml; Sigma-Aldrich) for 10 to 30 minutes at 37° C. followed by gentle scraping with a pipette tip to recover cell clusters. Clusters were allowed to sediment and washed to remove residual collagenase. Cell clusters were split at a ratio of 1:3 monolayer area for routine culture or a 1:1 ratio for immediate assay. The human embryonis stem cell lines used for these examples were maintained at passage numbers less than 50 and routinely evaluated for normal karyotypic phenotype as well as absence of mycoplasm contamination.
Cell clusters used in assay were evenly resuspended in normal culture medium and plated into MATRIGEL-coated 96-well Packard VIEWPLATES (PerkinElmer) in volumes of 100 μl/well. MEF conditioned medium supplemented with 8 ng/ml bFGF) was used for initial plating and recovery. Daily feeding was conducted by aspirating spent culture medium from each well and replacing with an equal volume of fresh medium. Plates were maintained at 37° C. in a humidified box, 5% CO2 throughout the duration of assay.
Primary screening assays were initiated by aspirating culture medium from each well followed by three washes in PBS to remove residual growth factors and serum. Test volumes of 80-100 μl per well were added back containing DMEM:F12 base medium (Invitrogen) supplemented with 0.5% FCS (HyClone) and 100 ng/ml activin A (R&D Biosystems) and 10 μM test compound. Positive control wells contained the same medium substituting 10-20 ng/ml Wnt3a (R&D Biosystems). Negative control wells contained base medium with 0.5% FCS without activin A or Wnt3a. Screening compounds were tested in triplicate. Wells were aspirated and fed again with identical solutions on day 2 of the assay. On days 3 and 4, all assay wells were aspirated and converted to DMEM:F 12 supplemented with 2% FCS and 100 ng/ml activin A with the exception of negative control wells which were maintained in DMEM:F12 base medium with 2% FCS.
On day 4 of assay, 15-20 μl of MTS (Promega) was added to each well and plates were incubated at 37° C. for 1.5 to 4 hours. Densitometric readings at OD490 were determined using a Molecular Devices spectrophotometer plate reader. Average readings for replicate sets were calculated along with standard deviation and coefficient of variation. Experimental wells were compared to the Activin A/Wnt3a positive control to calculate a percent control value as a measure of proliferation.
Strong hits are defined as greater than or equal to 120% of control values; moderate hits are defined as falling within the interval of 60-120% of control values. A significant number of compounds induce a proliferative response in this assay.

[2] = test system: human embryonic stem cells (H9 line); assay: High content screening assay: cell number (proliferative response); type: cell-based
Procedure, shortened: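 H9 hESCs on MATRIGEL treated days 1-2 with 10 μM compound in DMEM:F12, 0.5% FCS, 100 ng/ml activin A; days 3-4 with 2% FCS plus activin A without compound. Fixed cells immunostained for Sox17 or HNF-3beta with Draq5 nuclear counterstain. Cell number and staining intensity quantified by high-content imaging, 12 fields/well.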

[3] = cell number in the wells analysed for HNF-3b expression
[4] = cell number in the wells analysed for SOX-17 expression

| SMILES | activity at 10 µM [1] | Average (of Raw Data) [1] | Proliferative Response Total cells [2, 3] | Proliferative Response Total cells [2, 4] | fold induction at 10 µM ([2]; Homo sapiens, Embryonic stem cell, 10 μM test compound with 100 ng/ml activin A on days 1-2, H9, total cell number by IN Cell Analyzer, strong and moderate hits, read-out: Proliferative Response, Fold over Wnt 3a/AA control) | Average [1] | % Control Value (proliferation) [1] | Raw Data [1] |
| --- | --- | --- | --- | --- | --- | --- | --- | --- |
| O=C1NC(=O)C(c2cn(CCCO)c3ncccc23)=C1c1ccccc1C(F)(F)F [Compound 16, 3-[1-(3-Hydroxypropyl)-1H-pyrrolo[2,3-b]pyridin-3-yl]-4-[2-(trifluoromethyl)phenyl]-1H-pyrrole-2,5-dione] | 85.5% | 0.8575 |  |  |  |  |  |  |
| O=C1NC(=O)C(c2cn(CCCO)c3ncccc23)=C1c1cccs1 [Compound 17, 3-[1-(3-Hydroxypropyl)-1H-pyrrolo[2,3-b]pyridin-3-yl]-4-thiophen-2-yl-1H-pyrrole-2,5-dione] |  | 0.4114 | 83 | 158 |  |  |  |  |
| O=C1NC(=O)C(c2cn(CCCO)c3ncccc23)=C1c1cc(Cl)sc1Cl [Compound 18, 3-(2,5-Dichlorothiophen-3-yl)-4-[1-(3-hydroxypropyl)-1H-pyrrolo[2,3-b]pyridin-3-yl]-1H-pyrrole-2,5-dione] |  | 0.1442 | 4 | 3 |  |  |  |  |
| COCCCn1cc(C2=C(c3ccccc3O)C(=O)NC2=O)c2cccnc21 [Compound 22, 3-(2-Hydroxyphenyl)-4-{1-[3-(methyloxy)propyl]-1H-pyrrolo[2,3-b]pyridin-3-yl}-1H-pyrrole-2,5-dione] |  | 0.3385 | 69 | 33 |  |  |  |  |
| COc1ccccc1C1=C(c2cn(-c3ccc4ccccc4c3)c3ncccc23)C(=O)NC1=O [Compound 23, 3-[2-(Methyloxy)phenyl]-4-(1-naphthalen-2-yl-1H-pyrrolo[2,3-b]pyridin-3-yl)-1H-pyrrole-2,5-dione] |  | 0.4714 | 399 | 88 |  |  |  |  |
| COc1ccccc1C1=C(c2cn(CCCNC(=O)OC(C)(C)C)c3ncccc23)C(=O)NC1=O [Compound 26, 1,1-Dimethylethyl [3-(3-{4-[2-(methyloxy)phenyl]-2,5-dioxo-2,5-dihydro-1H-pyrrol-3-yl}-1H-pyrrolo[2,3-b]pyridin-1-yl)propyl]carbamate] |  | 0.3611 | 136 | 109 |  |  |  |  |
| COc1ccccc1C1=C(c2cn(CCCNC(C)=O)c3ncccc23)C(=O)NC1=O [Compound 27, N-[3-(3-{4-[2-(Methyloxy)phenyl]-2,5-dioxo-2,5-dihydro-1H-pyrrol-3-yl}-1H-pyrrolo[2,3-b]pyridin-1-yl)propyl]acetamide] |  | 0.1152 | 5 | 5 |  |  |  |  |
| O=C1NC(=O)C(c2cn(CCCO)c3ncccc23)=C1c1cnccn1 [Compound 47, 3-[1-(3-Hydroxypropyl)-1H-pyrrolo[2,3-b]pyridin-3-yl]-4-pyrazin-2-yl-1H-pyrrole-2,5-dione] |  |  | 6908 | 10447 | 1.37 |  |  |  |
| O=C1NC(=O)C(c2nn(CCCO)c3ccccc23)=C1c1cn(-c2cccnc2)c2ccc(Cl)cc12 [Compound 52, 3-(5-Chloro-1-pyridin-3-yl-1H-indol-3-yl)-4-[1-(3-hydroxypropyl)-1H-indazol-3-yl]-1H-pyrrole-2,5-dione] | 136% |  |  |  |  | 1.0617 |  |  |
| CN(C)CCCn1c2c(c3ccccc31)C1=C(C(=O)NC1=O)N(c1cccc(Cl)c1)C2 [Compound 101, 4-(3-Chlorophenyl)-6-[3-(dimethylamino)propyl]-5,6-dihydropyrrolo[3′,4′:5,6]pyrido[3,4-b]indole-1,3(2H,4H)-dione] | 155% |  |  |  |  | 1.0316 |  |  |
| CCN1CCOCCOCCn2cc(c3ccccc32)C2=C(C(=O)NC2=O)c2cn(c3ccccc23)CC1 [Compound 103, 14-Ethyl-6,7,9,10,13,14,15,16-octahydro-12H,23H-5,26:17,22-di(metheno)dibenzo[k,q]pyrrolo[3,4-n][1,4,7,10,19]dioxatriacyclohenicosine-23,25(24H)-dione] |  |  |  |  |  | 0.5236 | 68.7% | 0.7125 and 0.3347 |
| O=C1NC(=O)C(c2cn(CCOCCOCCO)c3ccccc23)=C1c1cn(CCO)c2ccccc12 [Compound 110, 3-[1-(2-Hydroxyethyl)-1H-indol-3-yl]-4-{1-[2-({2-[(2-hydroxyethyl)oxy]ethyl}oxy)ethyl]-1H-indol-3-yl}-1H-pyrrole-2,5-dione] | 161% |  |  |  |  | 1.0686 |  |  |
| CN1CCN(C)CCn2cc(c3ccccc32)C2=C(C(=O)NC2=O)c2cn(c3ccccc23)CC1 [Compound 111, 8,11-Dimethyl-6,7,8,9,10,11,12,13-octahydro-20H-5,23:14,19-di(metheno)dibenzo[k,q]pyrrolo[3,4-n][1,4,7,10]tetraazacyclooctadecine-20,22(21H)-dione] |  |  |  |  |  | 0.8784 | 128.7% | 1.0689 and 0.6879 |
| CN1CCOCCOCCN(C)CCn2cc(c3ccccc32)C2=C(C(=O)NC2=O)c2cn(c3ccccc23)CC1 [Compound 112, 12,21-Dimethyl-11,12,13,14,16,17,20,21,22,23-decahydro-1H,10H,19H-9,4:24,29-di(metheno)dibenzo[k,q]pyrrolo[3,4-n][1,4,7,10,19,22]dioxatetraazacyclotetracosine-1,3(2H)-dione] |  |  |  |  |  | 0.9024 | 132.8% | 1.0444 and 0.7603 |
| O=C1NC(=O)C2=C1c1cn(c3ccccc13)CCOCCOCCN(Cc1cccs1)CCn1cc2c2ccccc21 [Compound 133, 14-(2-Thienylmethyl)-6,7,9,10,13,14,15,16-octahydro-12H,23H-5,26:17,22-di(metheno)dibenzo[k,q]pyrrolo[3,4-n][1,4,7,10,19]dioxatriazacyclohenicosine-23,25(24H)-dione] |  |  |  |  |  | 1.0839 | 149.3% | 1.0786 and 1.0891 |
| O=C1NC(=O)C2=C1c1cn(c3ccccc13)CCOCCOCCN(Cc1cccc3ccccc13)CCn1cc2c2ccccc21 [Compound 136, 14-(Naphthalen-1-ylmethyl)-6,7,9,10,13,14,15,16-octahydro-12H,23H-5,26:17,22-di(metheno)dibenzo[k,q]pyrrolo[3,4-n][1,4,7,10,19]dioxatriazacyclohenicosine-23,25(24H)-dione] |  |  |  |  |  | 0.9509 and 0.9309 | 128.8% and 125.7% | 0.8618 and 1.0400 and 0.8430 and 1.0187 |
| O=C1NC(=O)C(c2cn(CCOCCOCCNC3CCCc4ccccc43)c3ccccc23)=C1c1cn(CCNC2CCCc3ccccc32)c2ccccc12 (stereo not shown) [Compound 144, 3-{1-[2-(1,2,3,4-Tetrahydronaphthalen-1-ylamino)ethyl]-1H-indol-3-yl}-4-(1-{2-[(2-{[2-(1,2,3,4-tetrahydronaphthalen-1-ylamino)ethyl]oxy}ethyl)oxy]ethyl}-1H-indol-3-yl)-1H-pyrrole-2,5-dione] | 84% |  | 6833 | 7990 |  | 1.2160 |  |  |
| CN(C)c1cccc(-n2cc(C3=C(c4nn(CCO)c5ccccc45)C(=O)NC3=O)c3ccccc32)c1 [Compound 145, 3-{1-[3-(Dimethylamino)phenyl]-1H-indol-3-yl}-4-[1-(2-hydroxyethyl)-1H-indazol-3-yl]-1H-pyrrole-2,5-dione] | 61.1% |  | 2907 | 4914 |  | 0.9191 |  |  |
